{"source": "patent US12000833B2", "about": "“Marker for predicting the sensitivity to PI3K inhibitors” (INSERM (INSTITUT NATIONAL DE LA SANTE ET DE LA RECHERCHE …, priority 2017, dated 2024)", "key": {"[1]": {"tested_on": "metastatic pancreatic cancer", "conditions": "cited from earlier work"}, "phosphorylation of Akt [2]": {"tested_on": "phosphorylation of Akt", "assay": "Serum (FBS)-stimulated phosphorylation of Akt and downstream effectors in Capan-1 cells", "assay_type": "cell-based, human", "conditions": "Capan-1, after 10 min stimulation with serum", "experimental": "Light amino acid-labelled and heavy amino acid-labelled Capan-1 cells (respectively called thereafter “light” and “heavy” cells) were washed twice with phosphate buffer saline (PBS; SIGMA; D8537), trypsined (GE Healthcare; L11-002) and plated at a concentration of 2.5.10^6 cells in a 14.4 cm-diameter dish (Dutscher, 055063). After 48 h, cells were serum-starved during 16 h, over-night. Light and heavy cells were pre-treated respectively with inhibitors or their accordingly diluted vehicule (DMSO) (for drug description and used concentration) during 1 h, then stimulated or not for 10 min or 24 h with 2% dialysed FBS. After 10 min and 24 h of FBS stimulation, heavy cells and light cells were maintained on ice, washed three times with cold PBS and lysed.\n(§1) In pancreatic cancer, PI3K signalling is associated with a poor prognosis. […] However, this was not always coupled to a significant increase in the phosphorylation levels of canonical targets, pPRAS40 or pS6K, in all patients (data not shown), emphasizing the importance of other signalling targets downstream PI3Ks. Long-term inhibition of a core signal node is believed to induce an adaptive modification of the entire signal network. We tested if long-term inhibition of each PI3K isoforms induces a differential change in pancreatic cancer cell adaptation. To answer this question, we devise a strategy to globally identify this adaptive response focusing on phospho-site regulated signalling pathways (data not shown). […] Serum, which consist of a combination of RTK and GPCR stimuli mimicking physiopathological signalling, induces after 10 min a significant activation of class I PI3Ks as assessed by the phosphorylation of Akt and known downstream effectors PRAS40, S6K, S6 (data not shown). […] We thus chose these stimulation conditions to identify differential phosphoproteome across time in response to three PI3K iso form-selective drugs after SILAC metabolic labelling and enrichment in trypsine-based phosphopeptides by TiO2 beads allowing a robust S/T/Y phosphorylation quantification of thousands of proteins."}, "phosphorylation of Akt [3]": {"tested_on": "phosphorylation of Akt", "assay": "RTK-driven (EGF) or GPCR-driven (LPA) short-term phosphorylation of Akt", "assay_type": "cell-based, human", "conditions": "data not shown", "description": "as §1"}, "[4]": {"conditions": "monotherapy, gemcitabine-resistant metastatic pancreatic cancer patient"}}}
{"smiles": "Nc1ccn([C@@H]2O[C@H](CO)[C@@H](O)C2(F)F)c(=O)n1", "note": "[gemcitabine]", "values": [{"measurement": "patient survival", "setting": "[1]; standard of line chemotherapy, pancreatic cancer patients", "result": "increases their survival of only a few weeks"}]}
{"smiles": "Cc1nc(NC(=O)N2CCC[C@H]2C(N)=O)sc1-c1csc(C(C)(C)C)n1", "note": "[A66]", "values": [{"measurement": "pS473 and pT308Akt levels", "setting": "phosphorylation of Akt [2]", "result": "significantly inhibited"}, {"measurement": "RTK-driven (EGF) short-term phosphorylation of Akt", "setting": "phosphorylation of Akt [3]; EGF stimulation", "result": "inhibited"}]}
{"smiles": "CO[C@H]1C[C@@H]2CC[C@@H](C)[C@@](O)(O2)C(=O)C(=O)N2CCCC[C@H]2C(=O)O[C@H]([C@H](C)C[C@@H]2CC[C@@H](OCCO)[C@H](OC)C2)CC(=O)[C@H](C)/C=C(\\C)[C@@H](O)[C@@H](OC)C(=O)[C@H](C)C[C@H](C)/C=C/C=C/C=C/1C", "note": "[RAD001]", "values": [{"measurement": "clinical action", "setting": "[1]; [4]", "result": "only a minimal clinical action"}, {"measurement": "tolerability", "setting": "[1]; [4]", "result": "well tolerated"}]}
{"smiles": "O=C1NC(=O)/C(=C/c2ccc(-c3ccc(F)cc3O)o2)S1", "note": "[AS-252424]", "values": [{"measurement": "pS473 and pT308Akt levels", "setting": "phosphorylation of Akt [2]", "result": "significantly inhibited"}, {"measurement": "GPCR-driven (LPA) short-term phosphorylation of Akt", "setting": "phosphorylation of Akt [3]; LPA stimulation", "result": "inhibited"}]}
{"smiles": "Cc1cc(C(C)Nc2ccccc2)c2nc(N3CCOCC3)cc(=O)n2c1", "note": "(centres unmarked) [TGX-221]", "values": [{"measurement": "pS473 and pT308Akt levels", "setting": "phosphorylation of Akt [2]", "result": "significantly inhibited"}]}
